Results from article PMC8851282, “Senolysis induced by 25-hydroxycholesterol targets CRYAB in multiple cell types” (iScience, 2022).

Legend:
Assay type in all cases: cell-based
[1] = test system: human liver stellate cells (hLSCs); assay: Cell viability assay of NS and Doxo- or IR-induced senescent hLSCs treated with 25HC; details: 100 μM after 3 days; Doxo or IR induced senescence
Procedure: (§1) Figure 7 25HC treatment timeline and its effects on NS and SEN hCMECs, hLSCs, hRPTECs, and hACs All cell types were treated with either DMSO, 250 nM Doxo or 10-Gy IR at the times shown. 25HC treatment was started 24 h after Doxo or IR treatment. Cell viability was measured every 3–5 days for 15 days. Optimal treatment times for maximum senolysis are shown for each cell type: day 15 for hCMECs, day 3 for hLSCs, day 9 for hRPTECs and day 12 for hACs. For qRT-PCR: mean ± SE, n =4, ∗p< 0.05, ∗∗p< 0.01, ∗∗∗p<0.001, ∗∗∗∗p<0.0001 by Dunnett’s multiple comparisons test vs DMSO or NS, For cell viability assays: mean ± SE, n =3, ∗∗p< 0.01, ∗∗∗p<0.001, ∗∗∗∗p<0.0001 vs 0 mM by student’s t test.
(§2) All experiments were performed in incubators at 37 °C, 3% O2 and 5% CO2. Senescence was induced by treatment with either Doxo (250 nM for 24 h) ([Demaria et al., 2017]) or X-irradiation (10 Gy) ([Limbad et al., 2020]). […]
(§3) Cell viability was assessed using a cell counting kit-8 from Dojindo Molecular Technologies, Inc (Cat CK04-20). […] The supernatant was transferred to a new 96-well plate and absorbance read at 450 nm as recommended in the product datasheet. […]
Cells were treated with either DMSO or 250 nM Doxo for 24 h. […] Cell viability was measured every 3-–5 days until 15 days.
(b) 25HC effects on NS or IR-treated hLSCs at vari ous ti mes. […] Cell viability was measured every 3–5 days until 15 days. […]

[2] = test system: human articular chondrocytes (hAC); assay: Cell viability assay of NS and Doxo- or IR-induced senescent hACs treated with 25HC; details: 11.1 μM after 12 days; Doxo or IR induced senescence
Procedure: as §1, §2, §3
Cells were treated with DMSO or 250 nM Doxo for 24 h. […] Cell viability was measured every 3–5 days until 15 days. […] Cell viability was measured every 3–5 days until 15 days. […]

[3] = test system: human renal proximal tubule epithelial cells (hRPTECs); assay: Cell viability assay of NS and Doxo- or IR-induced senescent hRPTECs treated with 25HC; details: 5 μM after 9 days; Doxo or IR induced senescence
Procedure: as §1
All experiments were performed in incubators at 37 °C, 3% O2 and 5% CO2. […]
as §3
Supplementary Fig. 12 (related to Fig. 7) | 25HC treatment of human renal epithelial cells (a) 25HC effects on DMSO- or Doxo-treated hRPTECs at various times. […] Cel l vi abi l i ty was measured every 3–5 days until 15 days. […]
Cells were NS or treated with 10-Gy X-rays. […] Cell viability was measured every 3–5 days until 15 days. […]

C[C@H](CCCC(C)(C)O)[C@H]1CC[C@H]2[C@@H]3CC=C4C[C@@H](O)CC[C@]4(C)[C@H]3CC[C@]12C [25HC, 25-hydroxycholesterol]
induced significant senolysis: senolysis in hLSCs [1] | senolysis in hACs [2] | senolysis in hRPTECs [3]
